From PMC11707430, “Novel antibiotics against Staphylococcus aureus without detectable resistance by targeting proton motive force and FtsH” (MedComm, 2025)
Read-outs that look alike come from different tables or passages of the source.

What was measured:
[1] = Pharmacokinetics determination; format: in vivo; set-up: bioavailability / Vd / clearance / AUC(0-t) / AUC(0-inf) / MRT last / MRT inf: dose or concentration left out as unconfirmed; conditions: female, ICR, mouse, plasma, mice; for MRT last: read-out: MRT(0-t); for MRT inf: read-out: MRT(0-∞)
Description: Pharmacokinetics determination. […] Blood samples were extracted from the jugular vein at intervals of 0.083, 0.25, 0.5, 1, 2, 4, 8, and 24h post-treatment, respectively. The plasma was separated following centrifugation at 6800 × g for 6 min. Concentrations of these compounds in the plasma were quantified by using the LC-MS/MS-04 instrument (TQ4000, JEOL, Japan), and pharmacokinetic parameters were calculated by using Phoenix WinNonlin 7.0 software (Certara, Princeton, NJ, USA)^37.

[2] = tested on: TA 1535; assay: Ames test; format: cell-based, Salmonella typhimurium
Description: (§1) Ames test. Genotoxicity of the compounds was determined by Ames Kit (IPHASE, Beijing, China) containing Salmonella typhimurium (TA97a, TA98, TA100, and TA1535) and E. coli WP2 uvrA (pKM101). Diclofenac and 2-aminofluorene were used as positive controls for TA97a and TA98. Methyl methanesulfonate and 2-aminofluorene were used as positive controls for TA100. Methyl methanesulfonate and 2-aminoanthracene were used as positive controls for WP2 uvrA (pKM101). NaN3 and 2-aminoanthracene were used as positive controls for TA1535. The bottom and top layer culture medium, and S9 mixed solution were prepared according to the manufacturer’s instructions. After incubation at 37℃ for 48h, the colonies were counted.

[3] = tested on: TA 98; assay: Ames test; format: cell-based, Salmonella typhimurium
Description: as §1

[4] = tested on: TA 97a; assay: Ames test; format: cell-based, Salmonella typhimurium
Description: as §1

[5] = tested on: S. aureus; assay: Drug combination by checkerboard dilution assay; format: cell-based; conditions: STK848198 with SM, TOB, AMP, fosfomycin, SIS, gentamycin
Description: Drug combination assay. The potential combinational antimicrobial effects between individual drugs were determined by checkerboard dilution assay. Briefly, overnight cultured S. aureus was diluted in MH broth to ~1× 10^6 CFU/mL. Compounds were two-fold diluted by MH broth, then 50 μL of each compound were added to each well vertically and horizontally, respectively, in a 96-well cell culture plate. […] The fractional inhibitory concentration index (FICI) was calculated as (MICA in combination/MICA alone) + (MICB in combination/MICB alone)^20.

Cc1nc2c(-c3ccc(Cl)cc3)cnn2c(O)c1Cc1ccccc1 [STK848198]
AUC(0-inf) ([1]; ip): 38300 ± 7020 ng·h/mL
AUC(0-t) ([1]; ip): 38300 ± 7020 ng·h/mL
Cmax ([1]; ip): 39000 ± 5470 ng/mL
bioavailability ([1]; ip): 87%
MRT last ([1]; ip, i.p.): 1.02 ± 0.16 h
MRT inf ([1]; ip, i.p.): 1.17 ± 0.21 h
half-life ([1]; ip, i.p., read-out: T1/2 (converted)): 3.15 ± 2.38 h
Tmax ([1]; ip, i.p., read-out: Tmax): 0.33 ± 0.14 h
AUC(0-inf) ([1]; iv): 22400 ± 1990 ng·h/mL
AUC(0-t) ([1]; iv): 22000 ± 1960 ng·h/mL
C0 ([1]; iv): 51900 ± 1010 ng/mL
Cmax ([1]; iv): 40100 ± 2180 ng/mL
clearance ([1]; iv): 7.48 ± 0.69 mL/min/kg
MRT last ([1]; iv, i.v.): 0.67 ± 0.1 h
MRT inf ([1]; iv, i.v.): 0.86 ± 0.05 h
half-life ([1]; iv, i.v., read-out: T1/2 (converted)): 2.54 ± 0.7 h
Tmax ([1]; iv, i.v., read-out: Tmax): 0.08 h
Vd ([1]; iv, i.v., read-out: Vss): 0.38 ± 0.02 L/kg
Vd ([1]; iv, i.v., read-out: Vz): 1.66 ± 0.57 L/kg
Tmax ([1]; other: range over s.c., i.v., i.p. and p.o., 30 mg/kg, all the administration routes, read-out: T max (range)): 0.08 to 0.33 h
half-life ([1]; other: range over s.c., i.v., i.p. and p.o., 30 mg/kg, all the administration routes, read-out: half-life (range)): 2.54 to 7.65 h
AUC(0-inf) ([1]; po): 17800 ± 10500 ng·h/mL
AUC(0-t) ([1]; po): 17800 ± 10500 ng·h/mL
Cmax ([1]; po): 18700 ± 3430 ng/mL
bioavailability ([1]; po): 40.4%
MRT last ([1]; po, p.o.): 1.62 ± 0.75 h
MRT inf ([1]; po, p.o.): 2.21 ± 0.79 h
half-life ([1]; po, p.o., read-out: T1/2 (converted)): 3.43 ± 1.53 h
Tmax ([1]; po, p.o., read-out: Tmax): 0.25 h
AUC(0-inf) ([1]; sc): 18000 ± 3640 ng·h/mL
AUC(0-t) ([1]; sc): 18000 ± 3640 ng·h/mL
Cmax ([1]; sc): 11600 ± 6890 ng/mL
bioavailability ([1]; sc): 40.9%
MRT last ([1]; sc, s.c.): 3.5 ± 1.22 h
MRT inf ([1]; sc, s.c.): 5.19 ± 2.09 h
half-life ([1]; sc, s.c., read-out: T1/2 (converted)): 7.65 ± 1.16 h
Tmax ([1]; sc, s.c., read-out: Tmax): 0.33 ± 0.14 h
CFU(x±SD) ([2]; TA 1535, +S9, 25 μg/well): 2±1 CFU
Fold Change ([2]; TA 1535, +S9, 25 μg/well): 0.9
CFU(x±SD) ([2]; TA 1535, +S9, 50 μg/well): 2±1 CFU
Fold Change ([2]; TA 1535, +S9, 50 μg/well): 0.9
CFU(x±SD) ([2]; TA 1535, +S9, 100 μg/well): 2±1 CFU
Fold Change ([2]; TA 1535, +S9, 100 μg/well): 1
CFU(x±SD) ([2]; TA 1535, +S9, 200 μg/well): 2±1 CFU
Fold Change ([2]; TA 1535, +S9, 200 μg/well): 0.7
CFU(x±SD) ([2]; TA 1535, +S9, 400 μg/well): 2±1 CFU
Fold Change ([2]; TA 1535, +S9, 400 μg/well): 0.7
CFU(x±SD) ([2]; TA 1535, -S9, 25 μg/well): 2±1 CFU
Fold Change ([2]; TA 1535, -S9, 25 μg/well): 0.9
CFU(x±SD) ([2]; TA 1535, -S9, 50 μg/well): 2±2 CFU
Fold Change ([2]; TA 1535, -S9, 50 μg/well): 1
CFU(x±SD) ([2]; TA 1535, -S9, 100 μg/well): 2±2 CFU
Fold Change ([2]; TA 1535, -S9, 100 μg/well): 1
CFU(x±SD) ([2]; TA 1535, -S9, 200 μg/well): 1±1 CFU
Fold Change ([2]; TA 1535, -S9, 200 μg/well): 0.6
CFU(x±SD) ([2]; TA 1535, -S9, 400 μg/well): 1±1 CFU
Fold Change ([2]; TA 1535, -S9, 400 μg/well): 0.6
CFU(x±SD) ([3]; TA 98, +S9, 25 μg/well): 6 ±1 CFU
Fold Change ([3]; TA 98, +S9, 25 μg/well): 0.9
CFU(x±SD) ([3]; TA 98, +S9, 50 μg/well): 5 ±1 CFU
Fold Change ([3]; TA 98, +S9, 50 μg/well): 0.8
CFU(x±SD) ([3]; TA 98, +S9, 100 μg/well): 4 ±1 CFU
Fold Change ([3]; TA 98, +S9, 100 μg/well): 0.7
CFU(x±SD) ([3]; TA 98, +S9, 200 μg/well): 5 ±1 CFU
Fold Change ([3]; TA 98, +S9, 200 μg/well): 0.7
CFU(x±SD) ([3]; TA 98, +S9, 400 μg/well): 4 ±0 CFU
Fold Change ([3]; TA 98, +S9, 400 μg/well): 0.6
CFU(x±SD) ([3]; TA 98, -S9, 25 μg/well): 5±3 CFU
Fold Change ([3]; TA 98, -S9, 25 μg/well): 0.8
CFU(x±SD) ([3]; TA 98, -S9, 50 μg/well): 5±1 CFU
Fold Change ([3]; TA 98, -S9, 50 μg/well): 0.8
CFU(x±SD) ([3]; TA 98, -S9, 100 μg/well): 3±2 CFU
Fold Change ([3]; TA 98, -S9, 100 μg/well): 0.5
CFU(x±SD) ([3]; TA 98, -S9, 200 μg/well): 1±2 CFU
Fold Change ([3]; TA 98, -S9, 200 μg/well): 0.2
CFU(x±SD) ([3]; TA 98, -S9, 400 μg/well): 0±1 CFU
Fold Change ([3]; TA 98, -S9, 400 μg/well): 0.1
CFU(x±SD) ([4]; +S9, 25 μg/well): 6±5 CFU
Fold Change ([4]; +S9, 25 μg/well): 0.3
CFU(x±SD) ([4]; +S9, 50 μg/well): 6±2 CFU
Fold Change ([4]; +S9, 50 μg/well): 0.2
CFU(x±SD) ([4]; +S9, 100 μg/well): 4±4 CFU
Fold Change ([4]; +S9, 100 μg/well): 0.2
CFU(x±SD) ([4]; +S9, 200 μg/well): 4±1 CFU
Fold Change ([4]; +S9, 200 μg/well): 0.2
CFU(x±SD) ([4]; +S9, 400 μg/well): 5±2 CFU
Fold Change ([4]; +S9, 400 μg/well): 0.2
CFU(x±SD) ([4]; -S9, 25 μg/well): 14±2 CFU
Fold Change ([4]; -S9, 25 μg/well): 0.6
CFU(x±SD) ([4]; -S9, 50 μg/well): 11±1 CFU
Fold Change ([4]; -S9, 50 μg/well): 0.4
CFU(x±SD) ([4]; -S9, 100 μg/well): 8±2 CFU
Fold Change ([4]; -S9, 100 μg/well): 0.3
CFU(x±SD) ([4]; -S9, 200 μg/well): 10±4 CFU
Fold Change ([4]; -S9, 200 μg/well): 0.4
CFU(x±SD) ([4]; -S9, 400 μg/well): 4±3 CFU
Fold Change ([4]; -S9, 400 μg/well): 0.2
FICI [5]: ≤ 0.5
